Source: patent US8569344B2, “N-piperidinyl acetamide derivatives as calcium channel blockers” (Zalicus Pharmaceuticals Ltd., priority 2008, dated 2013)
pIC50: −log10 of the molar value.

Experiments:
[1] = molecular target: T1, human α1G T-type channels (Homo sapiens, UniProt O43497); assay: T-type calcium channel block, whole cell patch clamp in HEK cells (α1G); format: cell-based; settings: HEK cells, patch clamp, mainly non-inactivated protocol; values above 10 μM shown as 10 μM, below 0.30 μM shown as 0.30 μM; read-out: T-type Calcium Channel Block α1G IC50
T1 construct: expressed in transfected cells; host or cells: HEK 293
T1 sequence (O43497 whole entry): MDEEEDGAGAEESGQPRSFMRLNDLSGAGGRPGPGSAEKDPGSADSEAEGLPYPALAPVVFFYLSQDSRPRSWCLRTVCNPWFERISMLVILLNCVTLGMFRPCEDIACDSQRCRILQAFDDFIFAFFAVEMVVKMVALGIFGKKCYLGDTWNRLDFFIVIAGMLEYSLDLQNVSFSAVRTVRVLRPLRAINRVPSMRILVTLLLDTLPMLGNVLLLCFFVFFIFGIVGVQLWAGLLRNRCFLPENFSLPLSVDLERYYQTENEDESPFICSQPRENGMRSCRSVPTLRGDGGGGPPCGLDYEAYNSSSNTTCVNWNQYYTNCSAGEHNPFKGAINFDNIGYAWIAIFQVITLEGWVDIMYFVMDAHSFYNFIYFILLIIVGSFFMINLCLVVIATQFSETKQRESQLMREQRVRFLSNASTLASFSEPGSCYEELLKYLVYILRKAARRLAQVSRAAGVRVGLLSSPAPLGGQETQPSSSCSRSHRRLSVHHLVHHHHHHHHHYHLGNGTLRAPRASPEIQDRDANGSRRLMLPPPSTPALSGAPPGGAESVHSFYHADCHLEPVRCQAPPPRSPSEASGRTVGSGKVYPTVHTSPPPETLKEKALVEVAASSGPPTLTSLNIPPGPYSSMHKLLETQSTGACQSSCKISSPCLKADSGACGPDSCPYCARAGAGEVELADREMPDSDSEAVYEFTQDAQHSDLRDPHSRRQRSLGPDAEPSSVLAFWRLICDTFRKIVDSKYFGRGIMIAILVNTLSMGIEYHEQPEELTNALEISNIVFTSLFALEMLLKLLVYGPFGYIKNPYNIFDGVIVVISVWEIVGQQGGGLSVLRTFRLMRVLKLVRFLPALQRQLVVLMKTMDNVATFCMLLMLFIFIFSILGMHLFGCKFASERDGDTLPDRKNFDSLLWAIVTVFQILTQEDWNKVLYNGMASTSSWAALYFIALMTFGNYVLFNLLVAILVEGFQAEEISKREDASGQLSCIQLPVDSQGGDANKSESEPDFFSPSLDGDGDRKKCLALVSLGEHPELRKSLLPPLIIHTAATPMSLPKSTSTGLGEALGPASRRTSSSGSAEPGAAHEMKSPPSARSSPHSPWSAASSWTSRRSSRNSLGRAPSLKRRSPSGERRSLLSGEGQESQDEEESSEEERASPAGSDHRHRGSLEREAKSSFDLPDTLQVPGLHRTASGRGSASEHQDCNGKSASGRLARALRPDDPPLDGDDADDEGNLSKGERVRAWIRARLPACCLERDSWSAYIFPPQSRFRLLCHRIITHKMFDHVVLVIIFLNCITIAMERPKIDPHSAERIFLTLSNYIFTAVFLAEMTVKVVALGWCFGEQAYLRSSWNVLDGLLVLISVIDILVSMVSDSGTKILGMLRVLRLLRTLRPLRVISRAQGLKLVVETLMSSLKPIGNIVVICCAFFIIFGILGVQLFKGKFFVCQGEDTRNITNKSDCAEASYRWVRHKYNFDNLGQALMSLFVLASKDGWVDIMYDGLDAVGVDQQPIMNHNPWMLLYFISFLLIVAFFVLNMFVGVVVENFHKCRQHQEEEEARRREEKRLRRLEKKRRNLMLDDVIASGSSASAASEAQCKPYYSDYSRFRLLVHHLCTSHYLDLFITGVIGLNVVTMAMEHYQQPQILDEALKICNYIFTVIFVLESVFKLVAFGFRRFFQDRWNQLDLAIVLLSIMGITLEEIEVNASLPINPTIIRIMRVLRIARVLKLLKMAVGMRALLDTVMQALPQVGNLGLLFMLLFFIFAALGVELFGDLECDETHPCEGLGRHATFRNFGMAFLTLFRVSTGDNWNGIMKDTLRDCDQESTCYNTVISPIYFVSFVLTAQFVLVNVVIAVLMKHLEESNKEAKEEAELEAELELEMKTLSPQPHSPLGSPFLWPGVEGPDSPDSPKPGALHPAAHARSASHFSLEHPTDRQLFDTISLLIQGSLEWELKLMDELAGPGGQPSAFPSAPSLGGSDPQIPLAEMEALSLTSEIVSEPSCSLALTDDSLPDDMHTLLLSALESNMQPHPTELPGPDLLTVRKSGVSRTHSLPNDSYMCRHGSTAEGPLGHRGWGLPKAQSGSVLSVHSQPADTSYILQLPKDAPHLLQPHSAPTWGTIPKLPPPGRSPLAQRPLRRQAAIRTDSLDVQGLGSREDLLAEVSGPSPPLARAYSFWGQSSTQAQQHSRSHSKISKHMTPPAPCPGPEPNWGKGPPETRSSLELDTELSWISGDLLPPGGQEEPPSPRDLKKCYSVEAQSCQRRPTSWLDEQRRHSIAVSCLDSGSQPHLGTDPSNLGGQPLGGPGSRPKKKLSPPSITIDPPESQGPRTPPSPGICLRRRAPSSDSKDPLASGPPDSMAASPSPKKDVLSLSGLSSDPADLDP

[2] = molecular target: T2, human α1H T-type channels (Homo sapiens, UniProt O95180); assay: T-type calcium channel block, whole cell patch clamp in HEK cells (α1H); format: cell-based; settings: HEK cells, patch clamp, mainly non-inactivated protocol; values above 10 μM shown as 10 μM; read-out: T-type Calcium Channel Block α1H IC50
T2 construct: expressed in transfected cells; host or cells: HEK 293
T2 sequence (O95180 whole entry): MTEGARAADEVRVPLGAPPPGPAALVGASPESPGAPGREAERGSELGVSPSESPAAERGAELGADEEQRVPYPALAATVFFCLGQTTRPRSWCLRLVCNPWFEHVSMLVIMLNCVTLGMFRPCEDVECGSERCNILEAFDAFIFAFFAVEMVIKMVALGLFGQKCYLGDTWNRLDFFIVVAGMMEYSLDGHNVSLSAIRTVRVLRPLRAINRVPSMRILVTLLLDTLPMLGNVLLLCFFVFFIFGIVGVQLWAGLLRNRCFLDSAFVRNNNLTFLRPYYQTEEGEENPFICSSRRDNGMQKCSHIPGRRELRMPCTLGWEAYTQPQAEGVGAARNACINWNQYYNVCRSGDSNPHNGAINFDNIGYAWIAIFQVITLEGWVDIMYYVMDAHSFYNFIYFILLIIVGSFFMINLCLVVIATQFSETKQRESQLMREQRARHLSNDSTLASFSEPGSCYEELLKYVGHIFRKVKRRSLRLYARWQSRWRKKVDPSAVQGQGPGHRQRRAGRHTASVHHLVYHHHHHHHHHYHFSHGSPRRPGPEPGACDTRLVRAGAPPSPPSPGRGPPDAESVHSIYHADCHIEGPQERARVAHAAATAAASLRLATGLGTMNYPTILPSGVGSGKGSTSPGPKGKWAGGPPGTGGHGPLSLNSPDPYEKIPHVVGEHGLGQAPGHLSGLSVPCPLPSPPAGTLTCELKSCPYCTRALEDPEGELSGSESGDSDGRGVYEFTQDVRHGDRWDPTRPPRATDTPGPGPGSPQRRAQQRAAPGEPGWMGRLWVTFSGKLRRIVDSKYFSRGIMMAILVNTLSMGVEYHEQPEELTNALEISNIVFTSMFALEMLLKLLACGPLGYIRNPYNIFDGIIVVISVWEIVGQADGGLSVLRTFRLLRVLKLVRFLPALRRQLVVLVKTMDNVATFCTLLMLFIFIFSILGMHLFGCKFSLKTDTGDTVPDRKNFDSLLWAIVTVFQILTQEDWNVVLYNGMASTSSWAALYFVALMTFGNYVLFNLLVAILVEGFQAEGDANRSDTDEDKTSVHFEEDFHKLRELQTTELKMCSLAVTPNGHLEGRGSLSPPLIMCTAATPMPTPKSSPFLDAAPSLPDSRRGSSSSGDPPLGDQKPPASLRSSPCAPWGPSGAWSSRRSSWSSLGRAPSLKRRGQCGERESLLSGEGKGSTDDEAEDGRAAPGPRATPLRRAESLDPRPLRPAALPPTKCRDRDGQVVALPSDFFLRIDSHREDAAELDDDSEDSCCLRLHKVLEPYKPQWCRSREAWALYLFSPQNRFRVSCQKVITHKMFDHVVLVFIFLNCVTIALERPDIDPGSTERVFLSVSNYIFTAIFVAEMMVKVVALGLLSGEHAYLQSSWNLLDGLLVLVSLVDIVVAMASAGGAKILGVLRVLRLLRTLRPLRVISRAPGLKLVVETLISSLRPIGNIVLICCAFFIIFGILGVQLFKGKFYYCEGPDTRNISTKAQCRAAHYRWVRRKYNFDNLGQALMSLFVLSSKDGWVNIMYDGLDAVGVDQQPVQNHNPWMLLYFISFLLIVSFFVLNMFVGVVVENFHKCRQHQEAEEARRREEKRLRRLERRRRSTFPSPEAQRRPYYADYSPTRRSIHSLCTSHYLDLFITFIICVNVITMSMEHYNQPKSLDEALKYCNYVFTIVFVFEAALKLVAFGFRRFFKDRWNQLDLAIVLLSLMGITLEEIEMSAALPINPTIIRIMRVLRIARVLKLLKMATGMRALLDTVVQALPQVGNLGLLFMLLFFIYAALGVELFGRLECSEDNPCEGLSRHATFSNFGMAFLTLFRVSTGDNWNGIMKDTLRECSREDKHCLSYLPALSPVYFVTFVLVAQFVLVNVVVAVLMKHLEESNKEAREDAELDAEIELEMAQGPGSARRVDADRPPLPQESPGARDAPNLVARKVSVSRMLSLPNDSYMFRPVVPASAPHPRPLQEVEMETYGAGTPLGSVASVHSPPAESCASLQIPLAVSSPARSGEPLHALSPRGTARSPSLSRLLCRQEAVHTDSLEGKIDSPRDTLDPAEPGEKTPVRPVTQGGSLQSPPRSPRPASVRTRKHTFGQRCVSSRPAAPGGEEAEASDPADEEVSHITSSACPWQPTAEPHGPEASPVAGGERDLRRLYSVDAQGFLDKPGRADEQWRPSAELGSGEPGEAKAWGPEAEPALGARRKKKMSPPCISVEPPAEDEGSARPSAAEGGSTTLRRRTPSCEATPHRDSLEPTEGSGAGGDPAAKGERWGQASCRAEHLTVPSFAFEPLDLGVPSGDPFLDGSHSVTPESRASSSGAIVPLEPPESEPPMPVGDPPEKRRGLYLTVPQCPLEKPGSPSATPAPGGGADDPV

Row | SMILES | pIC50 [1] | pIC50 [2]
1 | O=C(NC1CCCCC1)NC1(CN2CCC(CNC(=O)c3cc(C(F)(F)F)cc(C(F)(F)F)c3)CC2)CCCC1 [Compound 14, N-((1-((1-(3-cyclohexylureido)cyclopentyl)methyl)piperidin-4-yl)methyl)-3,5-bis(trifluoromethyl)benzamide] | > 6.52 | 5.93
2 | CC(C)(C)OC(=O)NC(CN1CCC(CC(=O)NCc2cc(Cl)cc(Cl)c2)CC1)C(C)(C)C (stereo not drawn) [Compound 198, tert-butyl 1-(4-(2-(3,5-dichloro-benzylamino)-2-oxoethyl)piperidin-1-yl)-3,3-dimethylbutan-2-ylcarbamate] | 6.40 | 5.89
3 | CCC(C)(C)NC(=O)CN1CCC(CNC(=O)c2cc(C(F)(F)F)cc(C(F)(F)F)c2)CC1 [Compound 346, N-((1-(2-oxo-2-(tert-pentylamino)ethyl)piperidin-4-yl)methyl)-3,5-bis(trifluoromethyl) benzamide] | > 6.52 | 7.30
4 | CCS(=O)(=O)NC1(CN2CCC(CNC(=O)c3cc(C(F)(F)F)cc(C(F)(F)F)c3)CC2)CCCC1 [Compound 3, N-((1-((1-(ethylsulfonamido)cyclopentyl)methyl)piperidin-4-yl)methyl)-3,5-bis(trifluoromethyl)benzamide] | > 6.52 | 6.26
5 | CC(C)(C)C(CN1CCC(CC(=O)NC(c2cccc(F)c2)c2cccc(F)c2)CC1)NS(=O)(=O)C1CC1 (stereo not drawn) [Compound 221, N-(bis(3-fluorophenyl)methyl)-2-(1-(2-(cyclopropanesulfonamido)-3,3-dimethylbutyl)piperidin-4-yl)acetamide] | 5.39 | < 5.00
6 | O=C(CC1CCN(C(=O)[C@@H]2CCCCN2)CC1)Nc1cc(C(F)(F)F)cc(C(F)(F)F)c1 [Compound 195, (S)-N-(3,5-bis(trifluoromethyl)phenyl)-2-(1-(piperidine-2-carbonyl)piperidin-4-yl)acetamide] | 5.32 | 5.71
7 | O=C(NCC1CCN(CCNS(=O)(=O)C2CC2)CC1)c1cc(F)cc(C(F)(F)F)c1 [Compound 230, N-((1-(2-(cyclopropanesulfonamido)ethyl)piperidin-4-yl)methyl)-3-fluoro-5-(trifluoromethyl)benzamide] | 5.32 | 6.07
8 | CS(=O)(=O)NC1(CN2CCC(CNC(=O)c3cc(C(F)(F)F)cc(C(F)(F)F)c3)CC2)CCCC1 [Compound 1, N-((1-((1-(methylsulfonamido)cyclopentyl)methyl)piperidin-4-yl)methyl)-3,5-bis(trifluoromethyl)benzamide] | 6.00 | 6.43
9 | COc1cc(C(=O)NCC2CCN(CCNS(=O)(=O)C(F)(F)F)CC2)cc(C(F)(F)F)c1 [Compound 327, 3-methoxy-5-(trifluoromethyl)-N-((1-(2-(trifluoromethylsulfonamido)ethyl)piperidin-4-yl)methyl)benzamide] | > 6.52 | 6.13
10 | CC(C)NC(=O)NC1(CN2CCC(CNC(=O)c3cc(C(F)(F)F)cc(C(F)(F)F)c3)CC2)CCCC1 [Compound 15, N-((1-((1-(3-isopropylureido)cyclopentyl)methyl)piperidin-4-yl)methyl)-3,5-bis(trifluoromethyl)benzamide] | 5.99 | 5.52
11 | O=C(/C=C/c1cc(Cl)cc(Cl)c1)NCC1CCN(CCNC(=O)CCC(F)(F)F)CC1 [Compound 316, (E)-N-(2-(4-((3-(3,5-dichlorophenyl)acrylamido)methyl)piperidin-4-1-yl)ethyl)-4,4,4-trifluorobutanamide] | < 5.00 | 5.23
12 | O=C(CCC(F)(F)F)NCCN1CCC(CNC(=O)c2cccc(OC(F)(F)F)c2)CC1 [Compound 311, N-((1-(2-(4,4,4-trifluorobutanamido)ethyl)piperidin-4-yl)methyl)-3-(trifluoromethoxy) benzamide] | 5.58 | 6.48
13 | CC(C)(C)C(O)CN1CCC(CC(=O)NCc2ccc(Oc3ccccc3)cc2)CC1 (stereo not drawn) [Compound 174, 2-(1-(2-hydroxy-3,3-dimethylbutyl)piperidin-4-yl)-N-(4-phenoxybenzyl) acetamide] | 5.61 | < 5.00
14 | CC(C)(C)C(=O)NCCN1CCC(CNC(=O)c2cc(Cl)cc(Cl)c2)CC1 [Compound 298, 3,5-dichloro-N-((1-(2-pivalamidoethyl)piperidin-4-yl)methyl)benzamide] | > 6.52 | 6.55
15 | CC(C)(C)Oc1cccc(C(=O)NCC2CCN(CCNS(=O)(=O)C3CC3)CC2)c1 [Compound 229, 3-tert-butoxy-N-((1-(2-(cyclopropanesulfonamido)ethyl)piperidin-4-yl)methyl)benzamide] | < 5.00 | < 5.00
16 | O=C(NCC1CCN(CCNS(=O)(=O)C2CC2)CC1)c1cccc(Br)c1 [Compound 323, 3-bromo-N-((1-(2-(cyclopropanesulfonamido)ethyl)piperidin-4-yl)methyl)benzamide] | 5.73 | 5.58
17 | CC(C)(C)OC(=O)NCCN1CCC(CNC(=O)c2cccc(Cl)c2)CC1 [Compound 48, tert-butyl 2-(4-((3-chlorobenzamido)methyl)piperidin-1-yl)ethylcarbamate] | 5.80 | 6.10

Further lines, results first:

Row | pIC50 [1] | pIC50 [2] | SMILES
18 | < 5.00 | < 5.00 | CCCNC(=O)CN1CCC(CNC(=O)c2cccc(Cl)c2)CC1 [Compound 451, 3-chloro-N-((1-(2-oxo-2-(propylamino)ethyl)piperidin-4-yl)methyl)benzamide]
19 | > 6.52 | 7.22 | O=C(NCC1CCN(CCNC(=O)C2(C(F)(F)F)CCC2)CC1)c1cc(C(F)(F)F)cc(C(F)(F)F)c1 [Compound 434, 3,5-bis(trifluoromethyl)-N-((1-(2-(1-(trifluoromethyl)cyclobutanecarboxamido)ethyl)piperidin-4-yl)methyl)benzamide]
20 | > 6.52 | 7.10 | CC1(NC(=O)CN2CCC(CNC(=O)c3cc(F)cc(C(F)(F)F)c3)CC2)CCC1 [Compound 352, 3-fluoro-N-((1-(2-(1-methylcyclo-butylamino)-2-oxoethyl)piperidin-4-yl)methyl)-5-(trifluoromethyl) benzamide]
21 | > 6.52 | 7.05 | CC(C)(C)NC(=O)CN1CCC(CNC(=O)c2cc(Br)cc(C(F)(F)F)c2)CC1 [Compound 382, 3-bromo-N-((1-(2-(tert-butylamino)-2-oxoethyl)piperidin-4-yl)methyl)-5-(trifluoromethyl)benzamide]
22 | < 5.00 | < 5.00 | CCCNC(=O)CN1CCC(CNC(=O)c2cc(C)cc(C)c2)CC1 [Compound 445, 3,5-dimethyl-N-((1-(2-oxo-2-(propylamino)ethyl)piperidin-4-yl)methyl)benzamide]
23 | 6.24 | 6.10 | CC(C)S(=O)(=O)NCCN1CCC(CNC(=O)c2cc(F)cc(Cl)c2)CC1 [Compound 385, 3-chloro-5-fluoro-N-((1-(2-(1-methylethylsulfonamido)ethyl)piperidin-4-yl)methyl)benzamide]
24 | > 6.52 | 6.60 | CC1(NC(=O)CN2CCC(CNC(=O)c3cccc(Cl)c3)CC2)CCC1 [Compound 481, 3-chloro-N-((1-(2-(1-methylcyclo-butylamino)-2-oxoethyl)piperidin-4-yl)methyl)benzamide]
25 | 5.13 | < 5.00 | CC(C)NC(=O)CN1CCC(CNC(=O)c2cccc(OC(F)(F)F)c2)CC1 [Compound 444, N-((1-(2-(isopropylamino)-2-oxoethyl)piperidin-4-yl)methyl)-3-(trifluoromethoxy)benzamide]
26 | > 6.52 | 6.89 | CC(C(=O)NC(C)(C)C)N1CCC(CNC(=O)c2cc(F)cc(Cl)c2)CC1 (stereo not drawn) [Compound 546, N-((1-(1-(tert-butylamino)-1-oxo-propan-2-yl)piperidin-4-yl)methyl)-3-chloro-5-fluorobenzamide]
27 | 5.24 | 6.04 | CN(CCN1CCC(CNC(=O)c2cc(F)cc(C(F)(F)F)c2)CC1)C(=O)NC(C)(C)C [Compound 523, N-((1-(2-(3-tert-butyl-1-methylureido)ethyl)piperidin-4-yl)methyl)-3-fluoro-5-(trifluoromethyl) benzamide]
28 | > 6.52 | 6.51 | CC(C)(C)NS(=O)(=O)CCN1CCC(CNC(=O)c2cc(F)cc(C(F)(F)F)c2)CC1 [Compound 514, N-((1-(2-(N-tert-butylsulfamoyl)ethyl)piperidin-4-yl)methyl)-3-fluoro-5-(trifluoromethyl)benzamide]
29 | > 6.52 | 6.82 | CC1(NC(=O)CN2CCC(CNC(=O)c3cccc(C(F)(F)F)c3)CC2)CCC1 [Compound 479, N-((1-(2-(1-methylcyclobutylamino)-2-oxoethyl)piperidin-4-yl)methyl)-3-(trifluoromethyl)benzamide]
30 | > 6.52 | 7.70 | CC(C)(NC(=O)CN1CCC(CNC(=O)c2cccc(Br)c2)CC1)C(F)(F)F [Compound 459, 3-bromo-N-((1-(2-oxo-2-(1,1,1-trifluoro-2-methylpropan-2-ylamino)ethyl)piperidin-4-yl)methyl)benzamide]
31 | 5.16 | 5.15 | CC(C)(C)NC(=O)CN1CCC(CNC(=O)/C=C/c2cc(F)cc(F)c2)CC1 [Compound 369, (E)-N-((1-(2-(tert-butylamino)-2-oxoethyl)piperidin-4-yl)methyl)-3-(3,5-difluorophenyl)acrylamide]
32 | > 6.52 | 7.70 | COc1cc(F)cc(C(=O)NCC2CCN(CC(=O)NC(C)(C)C(F)(F)F)CC2)c1 [Compound 456, 3-fluoro-5-methoxy-N-((1-(2-oxo-2-(1,1,1-trifluoro-2-methylpropan-2-ylamino)ethyl)piperidin-4-yl)methyl)benzamide]
33 | 5.86 | 5.75 | CC(C)(F)CNC(=O)CN1CCC(CNC(=O)c2cc(F)cc(C(F)(F)F)c2)CC1 [Compound 556, 3-fluoro-N-((1-(2-(2-fluoro-2-methylpropylamino)-2-oxoethyl)piperidin-4-yl)methyl)-5-(trifluoromethyl)benzamide]
